One block for each compound: values may come before it.
Assays:
tau protein = conditions: cited from earlier work
[1] = Stability of isolated [11C]isoproterenol solution, radiochemical purity by HPLC; format: physicochemical
Procedure: Radiochemical purity and chemical purity of [2-^11C] isoproterenol in the solution after HPLC fractionation were analyzed by HPLC (CH3CN/acetic acid-ammonium acetate (pH 5.3), 10:90; column, CAPCELL PAK SCX UG 80, 4.6 (id)×150 mm; flow rate, 1 mL/min; UV detection, 278 nm; retention time, 6.5 min). [^11C] isoproterenol was confirmed by co-injection of unlabeled isoproterenol in HPLC. In the absence of addition of tartaric acid, the radiochemical purity immediately after isolation was 96%, whereas the radiochemical purity after 60 minutes dropped to 84% (see FIG. 3). […] This is presumed to be due to inhibition of deprotonation of two adjacent phenolic hydroxyl groups present in the catechol nucleus under acidic conditions and suppression of subsequent oxidative decomposition by oxygen molecules or superoxide. Also, the chemical purity measured at the above wavelength was >93%

[2] = tested on: hyperphosphorylated tau-expressing mice; conditions: administered to hyperphosphorylated tau-expressing mice; cited from earlier work

SMILES: CNCC(O)c1ccc(O)c(O)c1 (stereo not drawn) [adrenaline]
inhibition of aggregation of tau protein (tau protein): inhibited aggregation of tau protein

SMILES: NCCc1ccc(O)c(O)c1 [dopamine]
inhibition of aggregation of tau protein (tau protein): inhibited aggregation of tau protein

radiochemical purity after 60 minutes ([1]; solution after HPLC fractionation, absence of addition of tartaric acid, 60 minutes after isolation): 84% | radiochemical purity immediately after isolation ([1]; solution after HPLC fractionation, absence of addition of tartaric acid, immediately after isolation): 96%
SMILES: CC(C)NCC(O)c1ccc(O)c(O)c1 (stereo not drawn) [[^11C] isoproterenol, [2-^11C] isoproterenol]
drop in radiochemical purity after 60 minutes ([1]; tartaric acid added, 60 minutes after isolation): no drop in radiochemical purity was observed

SMILES: CC(C)NCC(O)c1ccc(O)c(O)c1 [D/L-isoproterenol]
inhibition of aggregation of tau protein (tau protein): particularly strongly suppresses aggregation of tau protein | abnormal behavior [2]: improvement of abnormal behavior | aggregation of tau protein [2]: suppression of aggregation of tau protein | nerve cell dropout [2]: suppression of nerve cell dropout
